Assay [1] concerns the target EcRecA (Escherichia coli, UniProt P0A7G6). The following applies: gel shift; 0, 10, 100 μM. Background: In EMSA bound probe runs differently from free probe, usually more slowly.
Assay [2] deals with ATCC25922 cells. Put plainly: Neutropenic murine bacterial thigh infection model. Format: in vivo, Escherichia coli. The protocol: Six-eight week-old, specific-pathogen-free, female CD-1 mice (weight, 25-35 g) were rendered neutropenic by intraperitoneal injection with 150 mg/kg cylcophosphamide (Sigma) four days before infection and 100 mg/kg cyclophosphamide 24 hours before infection. LB broth cultures inoculated from fresh ATCC25922 colonies and cells were grown to the log phase (OD600 of approximately 0.3) and diluted 1:1000 in LB broth. Thigh infections were produced by injecting 50 μl (approximately 10^6 CFUs) of diluted cultures into halothane-anesthetized mice. One group of mice was administrated inteperitoneal injection of 4,4-Fe-PcTs in conjunction with the second dose of cyclophosphamide (24 hours prior infection) (4,4-Fe-PcTs (pre)+CFX). Starting two hours after infection (defined as time zero), mice were administered subcutaneous injections of either 1 mg/kg ciprofloxacin alone (CFX) or co-treatment of 1 mg/kg ciprofloxacin with interperitoneal injection of 10 mg/kg 4,4-Fe-PcTs (4,4-Fe-PcTs+CFX and 4,4-Fe-PcTs (pre)+CFX) every 24 hours for 3 days. After 48 and 72 hours, three mice from each group were sacrificed, and their thighs removed and homogenized to determine the number of viable bacterial cells for both ciprofloxacin-sensitive and ciprofloxacin-resistant ATCC25922 cells. Serial dilutions of homogenates of the infected thigh were plated on LB agar (CFX Sensitive) and LB agar plates containing ciprofloxacin (40 nM) (CFX Resistant) to count viable cells for each of the three treatment groups.

The subject of assay [3] is E. coli strain ATCC25922. Put plainly: Antibiotic sensitivity assay (CFUs/ml), E. coli. It counts as cell-based, Escherichia coli. As for the experimental part: (§1) Bacterial cultures were diluted to 10^5 cells/mL in LB broth (ATCC25922) or MH broth (ATCC27853, ATCC29212, ATCC29213). Antibiotics and/or phthalocyanines were added at indicated concentrations and the culture was incubated at 37° C. Samples were collected at 0, 24, 48, and 72 hours and plated on LB agar (ATCC25922) or tryptic soy blood agar (ATCC27853, ATCC29212, ATCC29213) to determine CFUs/ml.
The ability of 4,4-Fe-PcTs and 3,4-Cu-PcTs to potentiate the activity of ciprofloxacin (abbreviated “CFX”) was tested. Ciprofloxacin inhibits DNA gyrase in bacteria, causing accumulation of double-stranded DNA breaks (DSBs) and inducing the SOS response. The inventors characterized the ability of 4,4-Fe-PcTs and 3,4-Cu-PcTs to potentiate the activity of ciprofloxacin in the pathogenic E. coli strain ATCC25922, which was used previously by Cirz et al. to evaluate the role of SOS response proteins in antibiotic resistance.

The subject of assay [4] is ATCC25922 cells. Nature of the assay: Hydroxyl radical production (HPF, flow cytometry). It counts as cell-based, Escherichia coli. The following applies: 4,4-Fe-PcTs 25 μM; ciprofloxacin 40 nM; three hours. The protocol:
To confirm that 4,4-Fe-PcTs inhibited the SOS response by a mechanism independent of blocking hydroxyl radical production, the ability of 4,4-Fe-PcTs to decrease hydroxyl radical levels in the presence of bactericidal antibiotics was assayed. Hydroxyphenyl fluorescein was used to measure hydroxyl radical formation in bacteria. Hydroxyl radical production was measured using flow cytometry with […] fluorescein (HPF, Invitrogen) as described previously. ATCC25922 cells were grown to OD600 of 0.3. For cultures treated with 4,4-Fe-PcTs, the 4,4-Fe-PcTs was added to give a concentration of 25 μM and the culture was incubated for three hours at 37° C. […] Samples (˜10^6 cells) were taken immediately before the addition of antibiotics (time zero) and every hour for three hours. The samples were washed once in PBS, and resuspended in PBS prior to analysis by flow cytometry. Hydroxyl radical production was monitored using a flow cytometer (Beckman Coulter, Inc.) with a 488 nm argon laser and a 515-545 nm emission. Flow cytometry data were analyzed using Flowjo (Tree Star, Inc.).

Assay [5] relates to ATCC25922 E. coli. Nature of the assay: Ciprofloxacin resistance assay and reconstruction assay (in vitro mutagenesis). It counts as cell-based, Escherichia coli.
Procedure: An in vitro mutagenesis assay [1] was used to measure the ability of 4,4-Fe-PcTs to block the acquisition of ciprofloxacin-induced resistance in ATCC25922 E. coli. ATCC25922 cells were plated on media containing ciprofloxacin in the presence or absence of 4,4-Fe-PcTs and cultured for 10 days. Colonies that appeared early in the assay (days 1 and 2) are believed to arise from pre-existing ciprofloxacin resistance mutations [1]. Colonies that appear later in the incubation (days 3 to 8) are due to ciprofloxacin resistance mutations acquired during exposure to ciprofloxacin or pre-existing mutations with a slow growth phenotype [1].
To distinguish between these two types of mutants, a reconstruction assay that tests for the time it takes for colonies to appear in the presence of ciprofloxacin was used. Colonies that appear at least two days faster than they appeared in the original ciprofloxacin mutagenesis screen were classified as colonies that acquire resistance after exposure to ciprofloxacin [1]. Colonies that appeared in the same number of days as in the ciprofloxacin resistance assay were classified as colonies with pre-existing mutations [1].
Twenty-five independent colonies of ATCC2592 were used to inoculate 25 LB broth cultures that were incubated at 37° C. for 25 hours. Viable cell counts in these cultures were determined by plating serial dilutions onto LB agar plates. One hundred microliters from each culture (˜10^8 cells) were plated in duplicate on LB agar containing ciprofloxacin (CFX) (40 nM) or ciprofloxacin (40 nM) and 4,4-Fe-PcTs (25 μM) (CFX+4,4-Fe-PcTs). Three additional 100 μL aliquots from three cultures were also plated on the same media to determine the number of viable cells per day. At 24 hour intervals, visible colonies were counted, removed from the plate, and stored at −80° C. for later use in the reconstruction assay and sequencing. Every 24 hours, in parallel with the resistance assay, small plugs of agar between visible colonies were excised from resistance assay plates. Agar plugs were homogenized in M9 buffer. Dilutions were plated in duplicate on LB plates to determine the total number of viable cells per day. The cells were also plated on LB containing CFX (40 nM) to determine if any CFX-resistant colonies remained after excision [1].
Reconstruction assays were used to determine whether ciprofloxacin resistant colonies were due to post-exposure mutation or due to mutation prior to ciprofloxacin exposure. Ciprofloxacin resistant clones isolated from the resistance assay were grown to saturation in LB media in 96 well plates. Cultures were then replica-plated in duplicate using a 96-pin replicator on LB plates to confirm viability and LB plates containing ciprofloxacin (40 nM) to confirm ciprofloxacin resistance. Ciprofloxacin-resistant clones that were isolated in the presence 4,4-Fe-PcTs were replica plated on LB and LB containing 4,4-Fe-PcTs (25 μM) and ciprofloxacin (40 nM). Clones that were resistant before ciprofloxacin exposure were defined as clones that formed colonies on the ciprofloxacin-containing media in the same number of days in the reconstruction assay as in the original resistance assay. Clones that mutated after exposure to ciprofloxacin were defined as clones that formed colonies earlier than in the original resistance assay [1].
The rate of ciprofloxacin resistance was defined as the number of ciprofloxacin-resistant mutants per viable cell that evolve as a function of time. […]
Assay [6] relates to Pseudomonas aeruginosa ATCC27853. Nature of the assay: Antibiotic sensitivity assay (CFUs/ml), P. aeruginosa. It counts as cell-based. To be noted: compound 25 μM; ciprofloxacin 6.5 μM. The protocol: as §1
To confirm that the activity of 4,4-Fe-PcTs was not specific to the gram-negative ATCC25922 E. coli, the ability of 4,4-Fe-PcTs to potentiate the activity of ciprofloxacin in another gram-negative (Pseudomonas aeruginosa ATCC27853) strain and two gram-positive (Staphylococcus aureus ATCC29213 and Enterococcus faecalis ATCC29212) strains was evaluated.

In assay [7] the test system is SOS response (E. coli strain SS996). Put plainly: SOS induction, GFP regulated by the sulA SOS promoter, flow cytometry. It counts as cell-based, Escherichia coli. To be noted: 4,4-Fe-PcTs 25 μM, three hours. The protocol:
To confirm that the bactericidal antibiotic potentiating activity of 4,4-Fe-PcTs was correlated with reduced SOS induction, SOS induction in the E. coli strain SS996 was monitored. This strain contains a green fluorescent protein (GFP) regulated by the sulA SOS promoter.
SS996 cultures were grown to an optical density at 600 nm (OD600) of 0.3. For cultures treated with 4,4-Fe-PcTs, the 4,4-Fe-PcTs was added to give a concentration of 25 μM and the culture was incubated for three hours at 37° C. Antibiotics were then added to yield concentrations of 2.5 μM (CFX), 40 μM (AMP), 43 μM (KAN), 21 μM (TET), 46 μM (CAM), or 808 μM (SPECT). Samples (˜10^6 cells) were taken immediately before the addition of antibiotics (time zero) and every hour for three hours. Samples were washed once in PBS, and resuspended in PBS prior to analysis by flow cytometry. GFP expression was monitored using flow cytometer (Beckman Coulter, Inc.) with a 488 nm argon laser and a 515-545 nm emission. Flow cytometry data were analyzed using Flowjo (Tree Star, Inc.).

Chain of EcRecA (P0A7G6 whole entry): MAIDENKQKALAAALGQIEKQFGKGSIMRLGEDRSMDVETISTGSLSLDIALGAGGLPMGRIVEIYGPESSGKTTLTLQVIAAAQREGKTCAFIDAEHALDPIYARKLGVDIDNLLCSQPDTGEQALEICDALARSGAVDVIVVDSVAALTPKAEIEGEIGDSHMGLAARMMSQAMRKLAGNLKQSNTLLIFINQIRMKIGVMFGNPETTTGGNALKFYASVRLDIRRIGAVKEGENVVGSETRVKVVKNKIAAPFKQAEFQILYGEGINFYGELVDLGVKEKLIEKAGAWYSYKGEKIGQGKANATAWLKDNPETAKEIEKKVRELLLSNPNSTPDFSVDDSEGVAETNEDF

“iron (III) phthalocyanine-4,4′,4″,4′″-tetrasulfonic acid [4,4-Fe-PcTs]”: in assay [1], the “inhibition of RecA ssDNA-binding activity” value was “in the micromolar range”. The “potentiation of ciprofloxacin by pretreatment versus co-treatment only” value in assay [2] (4,4-Fe-PcTs given 24 hours prior to infection plus co-treatment) was “potentiated the activity of ciprofloxacin more”. In addition, in assay [2] (mice co-treated with ciprofloxacin 1 mg/kg and 4,4-Fe-PcTs 10 mg/kg i.p. (with or without pretreatment)), the “ciprofloxacin-resistant cells in thigh” value was “no ciprofloxacin resistant cells were observed”. Also, the “CFUs on co-treatment with ampicillin” value in assay [3] (4,4-Fe-PcTs 25 μM + AMP 40 μM, after 24 hours) was “eliminating all CFUs”. Besides, the “effect on activity of chloramphenicol (bacteriostatic)” value in assay [3] (4,4-Fe-PcTs 25 μM + CAM 46 μM) is recorded as “very slight effect”. Also, the “CFUs on co-treatment with ciprofloxacin” value in assay [3] (4,4-Fe-PcTs 25 μM + CFX 40 nM, after 24 hours) was “eliminating all CFUs”. The “CFUs on co-treatment with kanamycin” value in assay [3] (4,4-Fe-PcTs 25 μM + KAN 43 μM, after 24 hours) is given as “eliminating all CFUs”. Besides, in assay [3] (4,4-Fe-PcTs 25 μM + SPECT 808 μM), the “effect on activity of spectinomycin (bacteriostatic)” value is on record as “very slight effect”. The “effect on activity of tetracycline (bacteriostatic)” value in assay [3] (4,4-Fe-PcTs 25 μM + TET 21 μM) was “very slight effect”. Further, the “potentiation of ciprofloxacin activity” value in assay [3] (ciprofloxacin 40 nM) and in assay [6] was “potentiated the activity of ciprofloxacin” throughout. For the same substance, in assay [3] (co-treated with ciprofloxacin 40 nM and compound at concentrations above 25 μM), the “colony forming units (CFUs)” value is “no colony forming units (CFUs) were observed”. The “effect on ciprofloxacin-induced hydroxyl radicals” value in assay [4] is recorded as “did not alter”. Moreover, the “total number of viable and ciprofloxacin-resistant cells relative to ciprofloxacin alone” value in assay [5] (4,4-Fe-PcTs 25 μM + ciprofloxacin 40 nM) is “reduced”. Further, the “ciprofloxacin resistant mutants over time” value in assay [5] (cells treated with Fe-PcTs and ciprofloxacin) is recorded as “no ciprofloxacin resistant mutants were observed after day 4”. In addition, the “ciprofloxacin-resistant colonies caused by pre-existing mutations” value in assay [5] (ciprofloxacin (40 nM) and 4,4-Fe-PcTs (25 μM)) is listed as 60%. For the same substance, in assay [7] (AMP 40 μM), the “effect on ampicillin-induced SOS response (GFP)” value is recorded as “reduced the ability”. The “effect on ciprofloxacin-induced SOS response (GFP)” value in assay [7] (CFX 2.5 μM) is reported as “reduced the ability”.

These data come from US9393250B2, “Phthalocyanine compounds useful as RecA inhibitors and methods of using same” (University of Saskatchewan, priority 2012, dated 2016).
